This note sets out measurements from ChEMBL document CHEMBL1201862, “PubChem BioAssay data set” (2004).

Test systems include SF-268; MCF7; UACC-62; Hs-578T; SN12C; CCRF-CEM; A498; NCI-H226; UO-31; SNB-75; SK-MEL-2; HOP-92; SK-MEL-5; M14; MDA-N; SR; IGROV-1; Malme-3M; CAKI-1; DLD-1.
Common to all, as to experiment: inhibition of tumour cell growth, NCI panel, 48 h

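These data come from cells grown in 96-well plates and exposed to compound for 48 hours at five concentrations. Here, GI50 denotes the concentration required for 50% inhibition of growth.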 Activity calls are given as the source filed them. Rule as the data show it: active = GI50 up to about 1.1 µM and inactive = higher.

Consider `CN(C)CCCc1cccnc1`, for which the GI50 in the assay with SF-268, in the assay on MCF7, in the assay with UACC-62, with Hs-578T, in the assay on SN12C and in the assay with CCRF-CEM was > 100 µM (inactive) throughout. For the same compound, the GI50 with A498 was > 100 µM (inactive); in the assay on NCI-H226 it was > 100 µM (inactive); in the assay with UO-31, > 100 µM (inactive); in the assay on SNB-75 it was 41.7 µM (inactive); in the assay on SK-MEL-2 it was > 100 µM (inactive); with HOP-92, > 100 µM (inactive). Also, the GI50 with SK-MEL-5, in the assay with M14, in the assay on MDA-N, in the assay with SR, with IGROV-1 and in the assay with Malme-3M was > 100 µM (inactive) throughout. The GI50 in the assay with CAKI-1 was > 100 µM (inactive).
`O=C(O)[C@H](NS(=O)(=O)c1ccc(F)cc1)c1ccccc1`: the GI50 in the assay with SF-268, in the assay on UACC-62, in the assay on SN12C, with CCRF-CEM, in the assay with NCI-H226 and in the assay with UO-31 was > 100 µM (inactive) throughout. The GI50 in the assay on SNB-75, with DLD-1, in the assay with SK-MEL-2, in the assay on SK-MEL-5, in the assay with M14 and in the assay on IGROV-1 was > 100 µM (inactive) in each case. The GI50 with Malme-3M and in the assay with CAKI-1 was > 100 µM (inactive) in each case.
For `N=C(N)NS(=O)(=O)c1ccc(NC(=O)c2ccc3nc4ccccc4c(Nc4ccc(S(=O)(=O)N=C(N)N)cc4)c3c2)cc1`, the GI50 is > 100 µM (inactive) with SF-268; > 100 µM (inactive) with MCF7; 30.1 µM (inactive) with UACC-62; > 100 µM (inactive) in the assay with Hs-578T; > 100 µM (inactive) in the assay with SN12C; > 100 µM (inactive) in the assay on CCRF-CEM. For the same compound, the GI50 in the assay on A498, with NCI-H226, in the assay with UO-31, in the assay on SNB-75, in the assay with SK-MEL-2 and with HOP-92 was > 100 µM (inactive) throughout. Further, the GI50 in the assay on SK-MEL-5, in the assay on M14, in the assay with MDA-N, in the assay on SR, in the assay with IGROV-1 and in the assay on Malme-3M was > 100 µM (inactive) each time. For the same compound, the GI50 in the assay with CAKI-1 is > 100 µM (inactive).
In the case of `CC(C)(C)c1cc(C(C)(C)C)c2c(c1O)OC(=O)CS2`, the GI50 in the assay with SF-268 is 5.51 µM (inactive); in the assay with MCF7, 3.82 µM (inactive); in the assay on UACC-62 it was 2.2 µM (inactive); in the assay with Hs-578T, 2.84 µM (inactive); in the assay with SN12C, 5.79 µM (inactive); in the assay on CCRF-CEM, 4.17 µM (inactive). The GI50 in the assay with A498 was 13 µM (inactive); with NCI-H226 it was 8.34 µM (inactive); in the assay on UO-31, 5.73 µM (inactive); with SNB-75 it was 1.15 µM (inactive); with SK-MEL-2, 6.93 µM (inactive); in the assay with HOP-92 it was 9.59 µM (inactive). In addition, the GI50 in the assay on SK-MEL-5 was 2.88 µM (inactive); in the assay on M14, 7.1 µM (inactive); in the assay with MDA-N, 3.67 µM (inactive); in the assay with SR, 4.56 µM (inactive); with IGROV-1 it was 7.1 µM (inactive); in the assay on Malme-3M it was 20.8 µM (inactive). The GI50 with CAKI-1 was 5.9 µM (inactive).
Take `COC(=O)/C=C/c1cnc2c(c1)oc(=O)n2C`: the GI50 with SF-268, with MCF7, in the assay with UACC-62, with Hs-578T, with SN12C and in the assay with CCRF-CEM was > 100 µM (inactive) in each case. In addition, the GI50 in the assay on A498, in the assay on NCI-H226, with UO-31, in the assay with SNB-75, in the assay on SK-MEL-2 and in the assay on HOP-92 was > 100 µM (inactive) in each case. The GI50 with SK-MEL-5, in the assay on M14, with MDA-N, in the assay with SR, in the assay on IGROV-1 and in the assay on Malme-3M was > 100 µM (inactive) throughout. Also, the GI50 with CAKI-1 was > 100 µM (inactive).
With `COc1cc2cccc(/N=C\c3cccc(OC)c3OC(C)C)c2cc1OC`, the GI50 with SF-268 was 24.4 µM (inactive); with UACC-62, 19.6 µM (inactive); in the assay with SN12C, 40.1 µM (inactive); in the assay with CCRF-CEM, 21.2 µM (inactive); in the assay with A498, 56.9 µM (inactive); in the assay on UO-31, 30.1 µM (inactive). The GI50 with SNB-75 was 21.7 µM (inactive); in the assay with DLD-1, 25.6 µM (inactive); with SK-MEL-2, 18 µM (inactive); in the assay on SK-MEL-5, 24.8 µM (inactive); in the assay with M14, 17.9 µM (inactive); with IGROV-1, 24 µM (inactive). Further, the GI50 is 22.3 µM (inactive) with Malme-3M and 24 µM (inactive) with CAKI-1.
Consider `Cc1cccc(/N=N/c2ccc(O)c(CN(C)C)c2)c1`, for which the GI50 was 26.2 µM (inactive) in the assay with SF-268; 39.1 µM (inactive) in the assay on MCF7; 8.95 µM (inactive) in the assay on UACC-62; 16 µM (inactive) in the assay on Hs-578T; 62.4 µM (inactive) in the assay on SN12C; 0.0753 µM (active) with CCRF-CEM. Moreover, the GI50 with A498 is 18.1 µM (inactive); in the assay on NCI-H226 it was 30.9 µM (inactive); in the assay on UO-31 it was 7.35 µM (inactive); in the assay with SNB-75 it was 29 µM (inactive); in the assay on SK-MEL-2, 20.7 µM (inactive); in the assay with HOP-92 it was 6.17 µM (inactive). Further, the GI50 with SK-MEL-5 was 14 µM (inactive); in the assay on M14, 27.4 µM (inactive); in the assay on MDA-N it was 27.3 µM (inactive); in the assay with SR it was 43.1 µM (inactive); in the assay with IGROV-1, 21.8 µM (inactive); with Malme-3M, 10 µM (inactive). Moreover, the GI50 in the assay with CAKI-1 is 20.7 µM (inactive).
With `CNN1C(=O)c2c(N)c(C#N)c(-c3ccccc3)c(-c3ccccc3)c2C1=O`, the GI50 in the assay with SF-268 was > 100 µM (inactive); in the assay on MCF7, 65.8 µM (inactive); in the assay on UACC-62 it was > 100 µM (inactive); with Hs-578T it was 70.1 µM (inactive); in the assay on SN12C, > 100 µM (inactive); in the assay on CCRF-CEM, 41.1 µM (inactive). Besides, the GI50 is > 100 µM (inactive) with A498; > 100 µM (inactive) in the assay with NCI-H226; 48.6 µM (inactive) with UO-31; 83.4 µM (inactive) with SNB-75; > 100 µM (inactive) in the assay with SK-MEL-2; > 100 µM (inactive) in the assay on HOP-92. For the same compound, the GI50 in the assay with SK-MEL-5 is 62.4 µM (inactive); in the assay on M14 it was > 100 µM (inactive); in the assay with MDA-N, > 100 µM (inactive); in the assay on SR it was 76.7 µM (inactive); with IGROV-1 it was 48.9 µM (inactive); in the assay on Malme-3M, > 100 µM (inactive). Moreover, the GI50 in the assay on CAKI-1 was > 100 µM (inactive).
For the compound `O=C(/C=C/NC(=O)OCc1ccccc1)OCc1ccccc1`, the GI50 in the assay with SF-268, with MCF7, in the assay with UACC-62, with Hs-578T, in the assay with SN12C and in the assay with CCRF-CEM was > 100 µM (inactive) each time. Further, the GI50 was > 100 µM (inactive) in the assay with A498; > 100 µM (inactive) in the assay with NCI-H226; 32.5 µM (inactive) in the assay with UO-31; 32.7 µM (inactive) in the assay on SNB-75; > 100 µM (inactive) with SK-MEL-2; 41.6 µM (inactive) in the assay with HOP-92. For the same compound, the GI50 in the assay on SK-MEL-5, in the assay with M14, in the assay with MDA-N, with SR, with IGROV-1 and in the assay on Malme-3M was > 100 µM (inactive) in each case. The GI50 in the assay with CAKI-1 is > 100 µM (inactive).
For `CN(C)/C=N\c1c(Br)cc(Br)c2nonc12`, the GI50 in the assay on SF-268 is > 100 µM (inactive); in the assay with MCF7 it was > 100 µM (inactive); in the assay on UACC-62, > 100 µM (inactive); in the assay on Hs-578T, 66.4 µM (inactive); in the assay on SN12C, > 100 µM (inactive); with CCRF-CEM, > 100 µM (inactive). In addition, the GI50 is > 100 µM (inactive) with A498; > 100 µM (inactive) with NCI-H226; > 100 µM (inactive) in the assay with UO-31; 44.3 µM (inactive) in the assay on SNB-75; > 100 µM (inactive) in the assay on SK-MEL-2; 85.7 µM (inactive) in the assay on HOP-92. Besides, the GI50 in the assay on SK-MEL-5, with M14, with MDA-N, in the assay with SR, in the assay with IGROV-1 and in the assay with Malme-3M was > 100 µM (inactive) throughout. Besides, in the assay on CAKI-1, the GI50 is > 100 µM (inactive).
For the compound `Cc1c(-c2cnccn2)ssc1=S` [OLTIPRAZ], the GI50 is 56.2 µM (inactive) in the assay with SF-268; > 100 µM (inactive) with MCF7; 76.2 µM (inactive) in the assay on UACC-62; 34.5 µM (inactive) with Hs-578T; > 100 µM (inactive) in the assay on SN12C; 60.3 µM (inactive) with CCRF-CEM. In addition, the GI50 in the assay on A498 was 34.8 µM (inactive); in the assay on NCI-H226 it was 94.2 µM (inactive); in the assay with UO-31, 40 µM (inactive); in the assay with SNB-75, 18.5 µM (inactive); with SK-MEL-2, 53.3 µM (inactive); in the assay on HOP-92 it was 26.8 µM (inactive). The GI50 is 36.3 µM (inactive) in the assay with SK-MEL-5; > 100 µM (inactive) with M14; > 100 µM (inactive) in the assay on MDA-N; 68.9 µM (inactive) with SR; > 100 µM (inactive) in the assay on IGROV-1; > 100 µM (inactive) in the assay on Malme-3M. Further, the GI50 in the assay with CAKI-1 was > 100 µM (inactive).
